These results are taken from ChEMBL document CHEMBL3751846, “Active site-directed plasmin inhibitors: Extension on the P2 residue” (Bioorg Med Chem, 2016).

By IC50 is commonly meant the concentration that inhibits the measured activity by half. As a reminder, the inhibition is how much of the control response was suppressed. Broadly, the Ki is the dissociation constant of the complex between target and ligand, obtained from inhibition or displacement.

Assay [1] concerns the target T1, Plasminogen (Homo sapiens, UniProt P00747). Put plainly: Inhibition of plasmin (unknown origin) using H-D-Val-Leu-Lys-pNA as substrate.
The target of assay [2] is Urokinase-type plasminogen activator (Homo sapiens, UniProt P00749). Put plainly: Inhibition of urokinase (unknown origin) using Pyr-Glu-Gly-Arg-pNA as substrate. The following applies: for inhibition: concentration not given here.
The next assay deals with Trypsin (Homo sapiens, UniProt P07477+P07478+P35030). Briefly: Inhibition of trypsin (unknown origin) using H-D-Phe-Pip-Arg-pNA as substrate. The format is protein assay.
Assay [3] concerns the target T1, Plasminogen. Briefly: Inhibition of plasmin (unknown origin).
Assay [4] addresses T1, Plasminogen. Briefly: Inhibition of human plasmin.
For assay [5], the target named is T1, Plasminogen. Briefly: Inhibition of human plasmin assessed as inhibition of amidolysis in presence of fibrinogen.
For assay [6], the target named is T1, Plasminogen. Put plainly: Inhibition of human plasmin assessed as inhibition of fibrinolysis in presence of fibrinogen.
Assay [7] has as its target T1, Plasminogen. Put plainly: Inhibition of human plasmin assessed as inhibition of fibrinogenolysis in presence of fibrinogen.

Square brackets hold non-standard residues; d marks the D form. Peptide text beside a SMILES is read from it. * marks the point of attachment. pNA = O=[N+]([O-])c1ccc(N*)cc1

T1 sequence (P00747 97-580 limits assumed): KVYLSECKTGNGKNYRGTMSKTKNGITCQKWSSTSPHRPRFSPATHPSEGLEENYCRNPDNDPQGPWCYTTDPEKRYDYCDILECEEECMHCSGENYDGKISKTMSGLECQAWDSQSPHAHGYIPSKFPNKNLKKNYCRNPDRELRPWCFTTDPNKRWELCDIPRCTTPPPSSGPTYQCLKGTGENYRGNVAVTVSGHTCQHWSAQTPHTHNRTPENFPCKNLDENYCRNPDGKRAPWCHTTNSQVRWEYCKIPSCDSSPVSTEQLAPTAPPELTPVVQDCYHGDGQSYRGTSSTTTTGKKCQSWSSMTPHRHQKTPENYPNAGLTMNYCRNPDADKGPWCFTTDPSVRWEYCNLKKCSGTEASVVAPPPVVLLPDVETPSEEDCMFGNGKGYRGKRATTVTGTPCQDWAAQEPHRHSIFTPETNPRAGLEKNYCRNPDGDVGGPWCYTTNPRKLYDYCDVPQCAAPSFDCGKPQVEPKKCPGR
T1 sequence (P00747 581-810 limits assumed): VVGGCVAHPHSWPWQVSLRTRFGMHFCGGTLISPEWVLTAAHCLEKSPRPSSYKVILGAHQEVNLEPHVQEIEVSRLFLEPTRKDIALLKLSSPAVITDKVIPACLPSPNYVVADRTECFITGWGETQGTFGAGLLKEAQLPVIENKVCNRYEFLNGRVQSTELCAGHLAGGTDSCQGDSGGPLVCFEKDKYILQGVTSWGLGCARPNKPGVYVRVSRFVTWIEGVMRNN

Consider `CCCCCCCCNC(=O)[C@H](Cc1ccc(OCc2cccc3cccnc23)cc1)NC(=O)[C@H]1CC[C@H](CN)CC1`, for which the half-inhibitory concentration (IC50) on Plasminogen [1] is 340 nM; in assay [2] it was above 100000 nM; on Trypsin, 930 nM. The inhibition in assay [2] is 24%.

`CCCCCCCCNC(=O)[C@H](Cc1ccc(OCc2ccc(C(=O)OCC)cc2)cc1)NC(=O)[C@H]1CC[C@H](CN)CC1`: the IC50 is 490 nM at Plasminogen [1], above 200000 nM in assay [2] and 6100 nM against Trypsin. For the same compound, the inhibition in assay [2] was found to be 40%.

With `CCCCCCCCNC(=O)[C@H](Cc1ccc(OCc2cccc([N+](=O)[O-])c2)cc1)NC(=O)[C@H]1CC[C@H](CN)CC1`, the concentration for half-maximal inhibition (IC50) against Plasminogen [1] was 680 nM; in assay [2], above 100000 nM; at Trypsin, 2100 nM. This compound also returned an inhibition in assay [2] of 13%.

Regarding `CCCCCCCCNC(=O)[C@H](Cc1ccc(OC(C)(C)C)cc1)NC(=O)[C@H]1CC[C@H](CN)CC1`, the IC50 is 17000 nM on Plasminogen [1], above 100000 nM in assay [2] and 380 nM against Trypsin. This compound yielded an inhibition in assay [2] of 17%.

With `CC[C@@H](C)[C@@H](N)C(=O)N[C@@H](Cc1ccc(OCc2ccncc2)cc1)C(=O)N[C@H](C#N)CCCCN`, 11000 nM corresponded to half-maximal inhibition against Plasminogen [3] (IC50).

On to `CCCCCCCCNC(=O)[C@H](Cc1ccc(OCc2ccccc2)cc1)NC(=O)[C@H]1CC[C@H](CN)CC1`, for which the IC50 is 1700 nM against Plasminogen [1], above 100000 nM in assay [2] and 2200 nM on Trypsin. This compound also came in with an inhibition in assay [2] of 0%.

On to `CCCCCCCCNC(=O)[C@H](Cc1ccc(OCc2cccc(C(F)(F)F)c2)cc1)NC(=O)[C@H]1CC[C@H](CN)CC1`, for which the IC50 against Plasminogen [1] was 600 nM; in assay [2], above 100000 nM; against Trypsin, 2500 nM. In assay [2], the inhibition turned out to be 12%.

Take `CCCCCCCCNC(=O)[C@H](Cc1ccc(OCc2cccc(OCc3ccncc3)c2)cc1)NC(=O)[C@H]1CC[C@H](CN)CC1`: the half-maximal inhibitory concentration (IC50) against Plasminogen [1] was 970 nM; in assay [2], above 50000 nM; against Trypsin, 1300 nM. The compound also yielded an inhibition in assay [2] of 36%.

For `CCCCCCCCNC(=O)[C@H](Cc1ccc(OCc2ccc(C(=O)O)cc2)cc1)NC(=O)[C@H]1CC[C@H](CN)CC1`, the IC50 on Plasminogen [1] was 2700 nM; in assay [2], above 100000 nM; at Trypsin it was 4700 nM. Also, in assay [2], the inhibition came to 22%.

`CC(C)C[C@H](NC(=O)[C@H](N)C(C)C)C(=O)N[C@@H](CCCCN)C(=O)Nc1ccc([N+](=O)[O-])cc1` (H-[dV]-Leu-Lys-pNA) came in with an IC50 against Plasminogen [4] of 530 nM.

Take `CCCCCCCCNC(=O)[C@H](Cc1ccc(OCc2ccncc2)cc1)NC(=O)[C@H]1CC[C@H](CN)CC1`: the IC50 came out at 530 nM at Plasminogen [1], 5300 nM in assay [2] and 1100 nM against Trypsin.

For the compound `CCCCCCCCNC(=O)[C@H](Cc1ccc(OCc2ccc(C(F)(F)F)cc2)cc1)NC(=O)[C@H]1CC[C@H](CN)CC1`, the IC50 was 960 nM at Plasminogen [1], above 100000 nM in assay [2] and 6900 nM at Trypsin. The compound also yielded an inhibition in assay [2] of 6%.

In the case of `CCCCCCCCNC(=O)[C@H](Cc1ccc(OCc2cccc(C(=O)OCC)c2)cc1)NC(=O)[C@H]1CC[C@H](CN)CC1`, the IC50 against Plasminogen [1] is 510 nM; in assay [2] it was above 50000 nM; on Trypsin, 2700 nM. Besides, the inhibition in assay [2] was determined as 7%.

As to `CCCCCCCCNC(=O)[C@H](Cc1ccc(OCc2cccc(C(=O)O)c2)cc1)NC(=O)[C@H]1CC[C@H](CN)CC1`, the results for the IC50 (against Plasminogen [1]; in assay [2]; at Trypsin) were 530 nM, above 50000 nM and 2000 nM, respectively. This compound also registered an inhibition in assay [2] of 13%.

For `CCCCCCCCNC(=O)[C@H](Cc1ccc(OCc2cccc(-c3ccccc3)c2)cc1)NC(=O)[C@H]1CC[C@H](CN)CC1`, the concentration for half-maximal inhibition (IC50) was 750 nM on Plasminogen [1], above 100000 nM in assay [2] and 6700 nM against Trypsin. For the same compound, in assay [2], the inhibition came to 41%.

In the case of `CCCCCCCCNC(=O)[C@H](Cc1ccc(OCc2ccc3ccccc3n2)cc1)NC(=O)[C@H]1CC[C@H](CN)CC1`, the IC50 against Plasminogen [1] came to 220 nM; in assay [2] it was 77000 nM; at Trypsin, 1400 nM.

With `CCCCCCCCNC(=O)[C@H](Cc1ccc(OCc2ccccc2C(=O)OC)cc1)NC(=O)[C@H]1CC[C@H](CN)CC1`, the IC50 against Plasminogen [1] is 1500 nM; in assay [2], above 200000 nM; against Trypsin, 4800 nM. Moreover, in assay [2], the inhibition amounted to 23%.

`CCCCCCCCNC(=O)[C@H](Cc1ccc(O)cc1)NC(=O)[C@H]1CC[C@H](CN)CC1`: the concentration for half-maximal inhibition (IC50) against Plasminogen [1] was found to be 67000 nM; in assay [2], 62000 nM; against Trypsin it was 1000 nM.

Consider `CCCCCCNC(=O)[C@H](Cc1ccc(OCc2cccnc2)cc1)NC(=O)c1ccc(CN)cc1`, for which the inhibition constant Ki on Plasminogen [5] worked out at 2900 nM. The values for the IC50 on Plasminogen [6] and on Plasminogen [7] were 2900 nM and 4500 nM, respectively.

Compound `CC[C@@H](C)[C@@H](N)C(=O)N[C@@H](Cc1ccc(OCc2cccc(OCc3ccncc3)c2)cc1)C(=O)N[C@H](C#N)CCCCN` returned an IC50 on Plasminogen [3] of 7700 nM.

Take `CCCCCCCCNC(=O)[C@H](Cc1ccc(OCc2cccc3ccccc23)cc1)NC(=O)[C@H]1CC[C@H](CN)CC1`: the IC50 is 1600 nM on Plasminogen [1], above 100000 nM in assay [2] and 2700 nM against Trypsin. The compound further gave an inhibition in assay [2] of 10%.

As to `CCCCCCCCNC(=O)[C@H](Cc1ccc(OCc2cccc(N)c2)cc1)NC(=O)[C@H]1CC[C@H](CN)CC1`, the IC50 at Plasminogen [1] was 860 nM; in assay [2] it was above 100000 nM; against Trypsin, 860 nM. The compound further displayed an inhibition in assay [2] of 31%.

Turning to `CCCCCCCCNC(=O)[C@H](Cc1ccc(OCc2ccc3ccccc3c2)cc1)NC(=O)[C@H]1CC[C@H](CN)CC1`, the IC50 on Plasminogen [1] was 710 nM; in assay [2], above 100000 nM; against Trypsin, 4400 nM. Moreover, in assay [2], the inhibition came to 23%.

Regarding `CCCCCCCCNC(=O)[C@H](Cc1ccc(OCc2ccccc2C(F)(F)F)cc1)NC(=O)[C@H]1CC[C@H](CN)CC1`, the 50% inhibitory concentration (IC50) on Plasminogen [1] was 3000 nM; in assay [2], above 100000 nM; against Trypsin, 4600 nM. Moreover, in assay [2], the inhibition worked out at 5%.
